Read-outs that look alike come from different tables or passages of the source.
Columns and labels:
Type in all cases: in vivo
wild oat (Avena fatua) = experiment: Test B postemergence; conditions: Avena fatua, post-emergence
Method in brief: (§1)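 Under greenhouse conditions, seeded pots and young plants (1- to 4-leaf, 2 to 18 cm) were treated at the same time with test chemicals in a non-phytotoxic solvent mixture containing surfactant. Response was assessed visually after 13 to 15 days, from 0 (no effect) to 100 (complete control).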

[1] = tested on: blackgrass (Alopecurus myosuroides); experiment: Test B postemergence; conditions: Alopecurus myosuroides, post-emergence
Method in brief: as §1

[2] = tested on: umbrella sedge (Cyperus difformis); experiment: Test B flooded paddy test; conditions: Cyperus difformis, Flood, 1000 g ai/ha; scale 0 to 100; read-out: Plant response rating, Sedge, Umbrella
Method in brief: (§2)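 Rice, umbrella sedge, duck salad and barnyardgrass grown to 2-leaf stage under flooded paddy conditions and treated with formulated test chemicals. Kept in greenhouse 13–15 days, then visually rated against untreated controls on a 0–100 scale (0 no effect, 100 complete control).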

rice (Oryza sativa) = experiment: Test B flooded paddy test; conditions: Oryza sativa, Flood, 1000 g ai/ha; scale 0 to 100; read-out: Plant response rating, Rice
Method in brief: as §2

[3] = tested on: duck salad (Heteranthera limosa); experiment: Test B flooded paddy test; conditions: Heteranthera limosa, Flood, 1000 g ai/ha; scale 0 to 100; read-out: Plant response rating, Ducksalad
Method in brief: as §2

[4] = tested on: barnyardgrass (Echinochloa crus-galli); experiment: Test B flooded paddy test; conditions: Echinochloa crus-galli, Flood, 1000 g ai/ha; scale 0 (no effect) to 100 (complete control); read-out: Plant response rating, Barnyardgrass
Method in brief: as §2

[5] = tested on: giant foxtail (Setaria faberii); experiment: Test B pre/postemergence; conditions: Setaria faberi; for pest or weed control at 125 g/ha: 125 g ai/ha; for pest or weed control at 500 g/ha: 500 g ai/ha
Method in brief: as §1

[6] = tested on: morningglory (Ipomoea coccinea); experiment: Test B pre/postemergence; conditions: Ipomoea; for pest or weed control at 125 g/ha: 125 g ai/ha; for pest or weed control at 500 g/ha: 500 g ai/ha
Method in brief: as §1

[7] = tested on: wheat (Triticum aestivum); experiment: Test B pre/postemergence; conditions: Triticum aestivum; for plant injury at 125 g/ha: 125 g ai/ha; for plant injury at 500 g/ha: 500 g ai/ha
Method in brief: as §1

[8] = tested on: lambsquarters (Chenopodium album); experiment: Test B pre/postemergence; conditions: Chenopodium album; for pest or weed control at 125 g/ha: 125 g ai/ha; for pest or weed control at 500 g/ha: 500 g ai/ha
Method in brief: as §1

[9] = tested on: pigweed (Amaranthus retroflexus); experiment: Test B pre/postemergence; conditions: Amaranthus retroflexus; for pest or weed control at 125 g/ha: 125 g ai/ha; for pest or weed control at 500 g/ha: 500 g ai/ha
Method in brief: as §1

[10] = tested on: velvetleaf (Abutilon theophrasti); experiment: Test B pre/postemergence; conditions: Abutilon theophrasti; for pest or weed control at 125 g/ha: 125 g ai/ha; for pest or weed control at 500 g/ha: 500 g ai/ha
Method in brief: as §1

[11] = tested on: cocklebur (Xanthium strumarium); experiment: Test B pre/postemergence; conditions: Xanthium strumarium; for pest or weed control at 125 g/ha: 125 g ai/ha; for pest or weed control at 500 g/ha: 500 g ai/ha
Method in brief: as §1

corn (Zea mays) = experiment: Test B pre/postemergence; conditions: Zea mays
Method in brief: as §1

[12] = tested on: crabgrass (Digitaria sanguinalis); experiment: Test B pre/postemergence; conditions: Digitaria sanguinalis; for pest or weed control at 125 g/ha: 125 g ai/ha; for pest or weed control at 500 g/ha: 500 g ai/ha
Method in brief: as §1

[13] = tested on: Surinam grass (Brachiaria decumbens); experiment: Test B pre/postemergence; conditions: Urochloa decumbens; for pest or weed control at 125 g/ha: 125 g ai/ha; for pest or weed control at 500 g/ha: 500 g ai/ha
Method in brief: as §1

[14] = tested on: barnyardgrass (Echinochloa crus-galli); experiment: Test B pre/postemergence; conditions: Echinochloa crus-galli; for pest or weed control at 125 g/ha: 125 g ai/ha; for pest or weed control at 500 g/ha: 500 g ai/ha
Method in brief: as §1

In the case of `COC(=O)c1nc(C2CC2)nc(N)c1Cl` [Compound 9, methyl 6-amino-5-chloro-2-cyclopropyl-4-pyrimidinecarboxylate], the pest or weed control at 125 g/ha (wild oat (Avena fatua); 125 g ai/ha, scale 0 to 100 (0 no effect, 100 complete control), read-out: Oat, Wild plant response rating) is reported as 20%, the pest or weed control at 500 g/ha (wild oat (Avena fatua); 500 g ai/ha, scale 0 to 100, read-out: Plant response rating, Oat, Wild) is reported as 70% and the pest or weed control at 125 g/ha ([1]; 125 g ai/ha, scale 0 to 100 (0 no effect, 100 complete control), read-out: Blackgrass plant response rating) is reported as 60%. It also gave a pest or weed control at 500 g/ha ([1]; 500 g ai/ha, scale 0 to 100, read-out: Plant response rating, Blackgrass) of 80%, a pest or weed control at 1000 g/ha [2] of 90% and a plant injury at 1000 g/ha (rice (Oryza sativa)) of 80%. It also gave a pest or weed control at 1000 g/ha [3] of 100%, a pest or weed control at 1000 g/ha [4] of 90% and a pest or weed control at 125 g/ha ([5]; post-emergence, Postemergence, scale 0 to 100 (0 no effect, 100 complete control), read-out: Foxtail, Giant plant response rating) of 90%. The pest or weed control at 500 g/ha ([5]; post-emergence, Postemergence, scale 0 to 100, read-out: Plant response rating, Foxtail, Giant) was 90%, the pest or weed control at 125 g/ha ([5]; pre-emergence, Preemergence, scale 0 to 100 (0 no effect, 100 complete control), read-out: Plant response rating, Foxtail, Giant) was 70% and the pest or weed control at 500 g/ha ([5]; pre-emergence, Preemergence, scale 0 to 100 (0 no effect, 100 complete control), read-out: Foxtail, Giant plant response rating) was 80%. The pest or weed control at 125 g/ha ([6]; post-emergence, Postemergence, scale 0 to 100 (0 no effect, 100 complete control), read-out: Morningglory plant response rating) was 100%, the pest or weed control at 500 g/ha ([6]; post-emergence, Postemergence, scale 0 to 100, read-out: Plant response rating, Morningglory) was 100% and the pest or weed control at 125 g/ha ([6]; pre-emergence, Preemergence, scale 0 to 100 (0 no effect, 100 complete control), read-out: Plant response rating, Morningglory) was 100%. For the same molecule, the pest or weed control at 500 g/ha ([6]; pre-emergence, Preemergence, scale 0 to 100 (0 no effect, 100 complete control), read-out: Morningglory plant response rating) was 100%, the plant injury at 125 g/ha ([7]; post-emergence, Postemergence, scale 0 to 100 (0 no effect, 100 complete control), read-out: Wheat plant response rating) was 40% and the plant injury at 500 g/ha ([7]; post-emergence, Postemergence, scale 0 to 100, read-out: Plant response rating, Wheat) was 70%. It also gave a plant injury at 125 g/ha ([7]; pre-emergence, Preemergence, scale 0 to 100 (0 no effect, 100 complete control), read-out: Plant response rating, Wheat) of 40%, a plant injury at 500 g/ha ([7]; pre-emergence, Preemergence, scale 0 to 100 (0 no effect, 100 complete control), read-out: Wheat plant response rating) of 80% and a pest or weed control at 125 g/ha ([8]; post-emergence, Postemergence, scale 0 to 100 (0 no effect, 100 complete control), read-out: Lambsquarters plant response rating) of 90%. The pest or weed control at 500 g/ha ([8]; post-emergence, Postemergence, scale 0 to 100, read-out: Plant response rating, Lambsquarters) was 100%, the pest or weed control at 125 g/ha ([8]; pre-emergence, Preemergence, scale 0 to 100 (0 no effect, 100 complete control), read-out: Plant response rating, Lambsquarters) was 90% and the pest or weed control at 500 g/ha ([8]; pre-emergence, Preemergence, scale 0 to 100 (0 no effect, 100 complete control), read-out: Lambsquarters plant response rating) was 100%. The pest or weed control at 125 g/ha ([9]; post-emergence, Postemergence, scale 0 to 100 (0 no effect, 100 complete control), read-out: Pigweed plant response rating) was 100%, the pest or weed control at 500 g/ha ([9]; post-emergence, Postemergence, scale 0 to 100, read-out: Plant response rating, Pigweed) was 100% and the pest or weed control at 125 g/ha ([9]; pre-emergence, Preemergence, scale 0 to 100 (0 no effect, 100 complete control), read-out: Plant response rating, Pigweed) was 90%. The pest or weed control at 500 g/ha ([9]; pre-emergence, Preemergence, scale 0 to 100 (0 no effect, 100 complete control), read-out: Pigweed plant response rating) was 100%, the pest or weed control at 125 g/ha ([10]; post-emergence, Postemergence, scale 0 to 100 (0 no effect, 100 complete control), read-out: Velvetleaf plant response rating) was 100% and the pest or weed control at 500 g/ha ([10]; post-emergence, Postemergence, scale 0 to 100, read-out: Plant response rating, Velvetleaf) was 100%. The pest or weed control at 125 g/ha ([10]; pre-emergence, Preemergence, scale 0 to 100 (0 no effect, 100 complete control), read-out: Plant response rating, Velvetleaf) was 90%, the pest or weed control at 500 g/ha ([10]; pre-emergence, Preemergence, scale 0 to 100 (0 no effect, 100 complete control), read-out: Velvetleaf plant response rating) was 100% and the pest or weed control at 125 g/ha ([11]; post-emergence, Postemergence, scale 0 to 100 (0 no effect, 100 complete control), read-out: Cocklebur plant response rating) was 100%. The pest or weed control at 500 g/ha ([11]; post-emergence, Postemergence, scale 0 to 100, read-out: Plant response rating, Cocklebur) was 100%, the pest or weed control at 125 g/ha ([11]; pre-emergence, Preemergence, scale 0 to 100 (0 no effect, 100 complete control), read-out: Plant response rating, Cocklebur) was 90% and the pest or weed control at 500 g/ha ([11]; pre-emergence, Preemergence, scale 0 to 100 (0 no effect, 100 complete control), read-out: Cocklebur plant response rating) was 100%. The plant injury at 125 g/ha (corn (Zea mays); post-emergence, Postemergence, 125 g ai/ha, scale 0 to 100 (0 no effect, 100 complete control), read-out: Corn plant response rating) was 70%, the Corn plant response rating (crop injury, 0 = no effect, 100 = complete kill) at 500 g/ha (corn (Zea mays); post-emergence, Postemergence, 500 g ai/ha, scale 0 to 100) was 90% and the Corn plant response rating (crop injury, 0 = no effect, 100 = complete kill) at 125 g/ha (corn (Zea mays); pre-emergence, Preemergence, 125 g ai/ha, scale 0 to 100 (0 no effect, 100 complete control)) was 50%. It also gave a plant injury at 500 g/ha (corn (Zea mays); pre-emergence, Preemergence, 500 g ai/ha, scale 0 to 100 (0 no effect, 100 complete control), read-out: Corn plant response rating) of 80%, a pest or weed control at 125 g/ha ([12]; post-emergence, Postemergence, scale 0 to 100 (0 no effect, 100 complete control), read-out: Crabgrass plant response rating) of 90% and a pest or weed control at 500 g/ha ([12]; post-emergence, Postemergence, scale 0 to 100, read-out: Plant response rating, Crabgrass) of 90%. The pest or weed control at 125 g/ha ([12]; pre-emergence, Preemergence, scale 0 to 100 (0 no effect, 100 complete control), read-out: Plant response rating, Crabgrass) was 90%, the pest or weed control at 500 g/ha ([12]; pre-emergence, Preemergence, scale 0 to 100 (0 no effect, 100 complete control), read-out: Crabgrass plant response rating) was 100% and the pest or weed control at 125 g/ha ([13]; post-emergence, Postemergence, scale 0 to 100 (0 no effect, 100 complete control), read-out: Surinam Grass plant response rating) was 90%. It also gave a pest or weed control at 500 g/ha ([13]; post-emergence, Postemergence, scale 0 to 100, read-out: Plant response rating, Surinam Grass) of 90%, a pest or weed control at 125 g/ha ([13]; pre-emergence, Preemergence, scale 0 to 100 (0 no effect, 100 complete control), read-out: Plant response rating, Surinam Grass) of 70% and a pest or weed control at 500 g/ha ([13]; pre-emergence, Preemergence, scale 0 to 100 (0 no effect, 100 complete control), read-out: Surinam Grass plant response rating) of 90%. For the same molecule, the pest or weed control at 125 g/ha ([14]; post-emergence, Postemergence, scale 0 to 100 (0 no effect, 100 complete control), read-out: Barnyardgrass plant response rating) was 90%, the pest or weed control at 500 g/ha ([14]; post-emergence, Postemergence, scale 0 to 100, read-out: Plant response rating, Barnyardgrass) was 90% and the pest or weed control at 125 g/ha ([14]; pre-emergence, Preemergence, scale 0 to 100 (0 no effect, 100 complete control), read-out: Plant response rating, Barnyardgrass) was 50%. The pest or weed control at 500 g/ha ([14]; pre-emergence, Preemergence, scale 0 to 100 (0 no effect, 100 complete control), read-out: Barnyardgrass plant response rating) was 90%.

From US8802597B2, “Herbicidal pyrimidines” (E I du Pont de Nemours and Company, priority 2003, dated 2014)
